ChEMBL document CHEMBL1201862, “PubChem BioAssay data set” (2004)
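Assay format: 96-well plates, 48-hour exposure. GI50: concentration for 50% inhibition of growth.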 The source made the active and inactive calls. Cut-off read from the data, not from the text of the source: active = GI50 up to about 1.1 µM and inactive = higher.

Legend:
Experiment in all cases: DTP human tumour cell line panel, 48 h
[1] = test system: NCI/ADR-RES
[2] = test system: CAKI-1
[3] = test system: M19-MEL
[4] = test system: KM-20L2
[5] = test system: DU-145
[6] = test system: HT-29
[7] = test system: TK-10
[8] = test system: T47D
[9] = test system: Malme-3M
[10] = test system: RXF 631
[11] = test system: SNB-19
[12] = test system: NCI-H460
[13] = test system: XF498
[14] = test system: HCT-116
[15] = test system: OVCAR-3
[16] = test system: LXFL 529
[17] = test system: OVCAR-8
[18] = test system: HOP-92
[19] = test system: SF-295
[20] = test system: NCI-H226
[21] = test system: NCI-H23
[22] = test system: HL-60
[23] = test system: Hs-578T
[24] = test system: EKVX
[25] = test system: OVCAR-5
[26] = test system: LOX IMVI
[27] = test system: MDA-N
[28] = test system: DLD-1
[29] = test system: HCC 2998
[30] = test system: 786-0
[31] = test system: ACHN
[32] = test system: A549
[33] = test system: SN12C
[34] = test system: UO-31
[35] = test system: SNB-75
[36] = test system: PC-3
[37] = test system: HOP-18
[38] = test system: NCI-H522
[39] = test system: SW-620
[40] = test system: HOP-62
[41] = test system: MDA-MB-231
[42] = test system: KM12
[43] = test system: IGROV-1
[44] = test system: MOLT-4
[45] = test system: SK-MEL-28
[46] = test system: RPMI-8226
[47] = test system: MDA-MB-435
[48] = test system: DMS-273
[49] = test system: UACC-62
[50] = test system: SK-MEL-5
[51] = test system: SF-539
[52] = test system: MCF7
[53] = test system: UACC-257
[54] = test system: SNB-78
[55] = test system: BT-549
[56] = test system: HCT-15
[57] = test system: M14
[58] = test system: A498
[59] = test system: CCRF-CEM
[60] = test system: SK-MEL-2
[61] = test system: U-251
[62] = test system: SF-268
[63] = test system: RXF 393
[64] = test system: COLO 205
[65] = test system: SK-OV-3
[66] = test system: SR
[67] = test system: DMS-114
[68] = test system: K562
[69] = test system: OVCAR-4

CCCCCCCCCCC(O)C1CCC(C(O)CCC(O)C2CCC(CCCCCCC[C@H](O)CC3=C[C@@H](C)OC3=O)O2)O1 (stereo not given in full)
GI50 [1]: 0.957 µM (active)
GI50 [2]: > 70.8 µM (inactive)
GI50 [3]: > 76.4 µM (inactive)
GI50 [4]: > 100 µM (inactive)
GI50 [5]: > 10 µM (inactive)
GI50 [6]: > 100 µM (inactive)
GI50 [7]: 30.3 µM (inactive)
GI50 [8]: > 10 µM (inactive)
GI50 [9]: 29.6 µM (inactive)
GI50 [10]: > 46.2 µM (inactive)
GI50 [11]: 3.66 µM (inactive)
GI50 [12]: > 22.9 µM (inactive)
GI50 [13]: 28.2 µM (inactive)
GI50 [14]: < 0.033 µM (active)
GI50 [15]: 18.3 µM (inactive)
GI50 [16]: 14.6 µM (inactive)
GI50 [17]: 10.2 µM (inactive)
GI50 [18]: 11.6 µM (inactive)
GI50 [19]: 0.01 µM (active)
GI50 [20]: 2.64 µM (inactive)
GI50 [21]: 0.01 µM (active)
GI50 [22]: 0.01 µM (active)
GI50 [23]: > 10 µM (inactive)
GI50 [24]: 34.8 µM (inactive)
GI50 [25]: > 100 µM (inactive)
GI50 [26]: 14.6 µM (inactive)
GI50 [27]: > 10 µM (inactive)
GI50 [28]: 54.8 µM (inactive)
GI50 [29]: 97.5 µM (inactive)
GI50 [30]: 17.3 µM (inactive)
GI50 [31]: 1.2 µM (inactive)
GI50 [32]: 15.1 µM (inactive)
GI50 [33]: > 48.9 µM (inactive)
GI50 [34]: 2.25 µM (inactive)
GI50 [35]: 6.9 µM (inactive)
GI50 [36]: > 10 µM (inactive)
GI50 [37]: > 100 µM (inactive)
GI50 [38]: 1.34 µM (inactive)
GI50 [39]: > 51.4 µM (inactive)
GI50 [40]: > 40.6 µM (inactive)
GI50 [41]: > 10 µM (inactive)
GI50 [42]: 6.1 µM (inactive)
GI50 [43]: 31.5 µM (inactive)
GI50 [44]: 2.02 µM (inactive)
GI50 [45]: > 51.9 µM (inactive)
GI50 [46]: 0.855 µM (active)
GI50 [47]: 6.28 µM (inactive)
GI50 [48]: 41.6 µM (inactive)
GI50 [49]: 4.02 µM (inactive)
GI50 [50]: 0.01 µM (active)
GI50 [51]: 26.8 µM (inactive)
GI50 [52]: 2 µM (inactive)
GI50 [53]: < 0.0169 µM (active)
GI50 [54]: 14.9 µM (inactive)
GI50 [55]: 0.001 µM (active)
GI50 [56]: > 53.1 µM
GI50 [57]: > 100 µM (inactive)
GI50 [58]: 22.2 µM (inactive)
GI50 [59]: 3.48 µM (inactive)
GI50 [60]: > 100 µM (inactive)
GI50 [61]: 10.2 µM (inactive)
GI50 [62]: 9.23 µM (inactive)
GI50 [63]: 5.81 µM (inactive)
GI50 [64]: > 100 µM (inactive)
GI50 [65]: 30.3 µM (inactive)
GI50 [66]: 0.01 µM (active)

COC1OC(COCc2ccc(Cl)cc2)C(OCc2ccc(Cl)cc2)C1O (stereo not given)
GI50 [2]: 18 µM (inactive)
GI50 [3]: 19.2 µM (inactive)
GI50 [4]: 17.3 µM (inactive)
GI50 [6]: 17.9 µM (inactive)
GI50 [7]: 25.5 µM (inactive)
GI50 [9]: 15.8 µM (inactive)
GI50 [10]: 16.2 µM (inactive)
GI50 [11]: 18 µM (inactive)
GI50 [12]: 17.4 µM (inactive)
GI50 [13]: 3.07 µM (inactive)
GI50 [15]: 19.7 µM (inactive)
GI50 [16]: 18.4 µM (inactive)
GI50 [17]: 26.2 µM (inactive)
GI50 [18]: 11.2 µM (inactive)
GI50 [19]: 18 µM (inactive)
GI50 [21]: 15.8 µM (inactive)
GI50 [22]: 11.6 µM (inactive)
GI50 [24]: 19.4 µM (inactive)
GI50 [25]: 16.1 µM (inactive)
GI50 [67]: 13.7 µM (inactive)
GI50 [26]: 16.9 µM (inactive)
GI50 [28]: 16.2 µM (inactive)
GI50 [29]: 17.7 µM (inactive)
GI50 [30]: 15 µM (inactive)
GI50 [31]: 18.6 µM (inactive)
GI50 [32]: 17.3 µM (inactive)
GI50 [33]: 14.9 µM (inactive)
GI50 [34]: 15.1 µM (inactive)
GI50 [35]: 17.5 µM (inactive)
GI50 [37]: 12.8 µM (inactive)
GI50 [38]: 12.8 µM (inactive)
GI50 [39]: 15.4 µM (inactive)
GI50 [40]: 17.5 µM (inactive)
GI50 [42]: 15 µM (inactive)
GI50 [43]: 22.8 µM (inactive)
GI50 [68]: 16.2 µM (inactive)
GI50 [44]: 20.2 µM (inactive)
GI50 [45]: 16.9 µM (inactive)
GI50 [46]: 23.9 µM (inactive)
GI50 [48]: 17.3 µM (inactive)
GI50 [49]: 16.2 µM (inactive)
GI50 [50]: 15.3 µM (inactive)
GI50 [51]: 16.3 µM (inactive)
GI50 [53]: 16.3 µM (inactive)
GI50 [56]: 16 µM
GI50 [57]: 16.1 µM (inactive)
GI50 [59]: 19.4 µM (inactive)
GI50 [60]: 16.3 µM (inactive)
GI50 [61]: 15.6 µM (inactive)
GI50 [69]: 20.6 µM (inactive)
GI50 [62]: 17.1 µM (inactive)
GI50 [63]: 15.1 µM (inactive)
GI50 [64]: 19 µM (inactive)
GI50 [65]: 33.9 µM (inactive)
